Test results published in the NIST ThermoML archive (doi:10.1016/j.fluid.2018.04.025).
Numbers after ± are expanded uncertainties.

Assays:
[1] = 101.3 kPa, Liquid; for viscosity: Falling or rolling sphere viscometry; for speed of sound: Frequency=3 MHz, Sing-around technique in a fixed-path interferometer; for mass density: Vibrating tube method
[2] = xn = mol fraction of the nth substance listed; conditions: 101 kPa, Liquid, x2 = 0; for viscosity: Falling or rolling sphere viscometry; for speed of sound: Frequency=3 MHz, Sing-around technique in a fixed-path interferometer; for mass density: Vibrating tube method

CCCC[n+]1ccn(C)c1.O=S(=O)([N-]S(=O)(=O)C(F)(F)F)C(F)(F)F
viscosity ([1]; 298.15 K): 51.15 ± 0.74 mPa·s | speed of sound ([1]; 298.15 K): 1227.3 ± 2.1 m/s | mass density ([1]; 298.15 K): 1436.02 ± 1.9 kg/m3 | viscosity ([1]; 303.15 K): 41.88 ± 0.74 mPa·s | speed of sound ([1]; 303.15 K): 1216.3 ± 2.1 m/s | mass density ([1]; 303.15 K): 1431.22 ± 1.9 kg/m3 | viscosity ([1]; 308.15 K): 34.58 ± 0.67 mPa·s | speed of sound ([1]; 308.15 K): 1205.5 ± 2.1 m/s | mass density ([1]; 308.15 K): 1426.43 ± 1.8 kg/m3 | viscosity ([1]; 313.15 K): 28.98 ± 0.62 mPa·s | speed of sound ([1]; 313.15 K): 1194.7 ± 2.1 m/s | mass density ([1]; 313.15 K): 1421.64 ± 1.8 kg/m3 | viscosity ([1]; 318.15 K): 24.6 ± 0.59 mPa·s | speed of sound ([1]; 318.15 K): 1184 ± 2.1 m/s | mass density ([1]; 318.15 K): 1416.84 ± 1.8 kg/m3 | viscosity ([1]; 323.15 K): 21.1 ± 0.57 mPa·s | speed of sound ([1]; 323.15 K): 1173.5 ± 2.1 m/s | mass density ([1]; 323.15 K): 1411.89 ± 1.8 kg/m3

CCCO [propan-1-ol] + CCCC[n+]1ccn(C)c1.O=S(=O)([N-]S(=O)(=O)C(F)(F)F)C(F)(F)F
viscosity ([2]; 298.15 K): 1.89 ± 0.6 mPa·s | speed of sound ([2]; 298.15 K): 1206.6 ± 0.86 m/s | mass density ([2]; 298.15 K): 799.924 ± 0.14 kg/m3 | viscosity ([2]; 303.15 K): 1.69 ± 0.6 mPa·s | speed of sound ([2]; 303.15 K): 1189.5 ± 0.86 m/s | mass density ([2]; 303.15 K): 795.888 ± 0.14 kg/m3 | viscosity ([2]; 308.15 K): 1.51 ± 0.6 mPa·s | speed of sound ([2]; 308.15 K): 1172.5 ± 0.85 m/s | mass density ([2]; 308.15 K): 791.815 ± 0.14 kg/m3 | viscosity ([2]; 313.15 K): 1.35 ± 0.6 mPa·s | speed of sound ([2]; 313.15 K): 1155.6 ± 0.85 m/s | mass density ([2]; 313.15 K): 787.7 ± 0.14 kg/m3 | viscosity ([2]; 318.15 K): 1.22 ± 0.6 mPa·s | speed of sound ([2]; 318.15 K): 1138.8 ± 0.84 m/s | mass density ([2]; 318.15 K): 783.538 ± 0.15 kg/m3 | viscosity ([2]; 323.15 K): 1.09 mPa·s | speed of sound ([2]; 323.15 K): 1122 ± 0.84 m/s | mass density ([2]; 323.15 K): 779.321 ± 0.15 kg/m3

CCCCO [butan-1-ol] + CCCC[n+]1ccn(C)c1.O=S(=O)([N-]S(=O)(=O)C(F)(F)F)C(F)(F)F
viscosity ([2]; 298.15 K): 2.57 ± 0.6 mPa·s | speed of sound ([2]; 298.15 K): 1242.4 ± 1 m/s | mass density ([2]; 298.15 K): 806.704 ± 0.17 kg/m3 | viscosity ([2]; 303.15 K): 2.26 ± 0.6 mPa·s | speed of sound ([2]; 303.15 K): 1225.5 ± 1 m/s | mass density ([2]; 303.15 K): 802.704 ± 0.17 kg/m3 | viscosity ([2]; 308.15 K): 1.99 ± 0.6 mPa·s | speed of sound ([2]; 308.15 K): 1208.7 ± 1 m/s | mass density ([2]; 308.15 K): 798.992 ± 0.17 kg/m3 | viscosity ([2]; 313.15 K): 1.77 ± 0.6 mPa·s | speed of sound ([2]; 313.15 K): 1192 ± 1 m/s | mass density ([2]; 313.15 K): 795.065 ± 0.17 kg/m3 | viscosity ([2]; 318.15 K): 1.58 ± 0.6 mPa·s | speed of sound ([2]; 318.15 K): 1175.4 ± 1 m/s | mass density ([2]; 318.15 K): 791.094 ± 0.18 kg/m3 | viscosity ([2]; 323.15 K): 1.41 ± 0.6 mPa·s | speed of sound ([2]; 323.15 K): 1158.8 ± 1 m/s | mass density ([2]; 323.15 K): 787.075 ± 0.18 kg/m3
